Measured values taken from the NIST ThermoML archive (doi:10.1016/j.jct.2015.12.020).
Where “and” joins values, the source holds several entries; their conditions need not be identical. Equal entries are not always repeated. Numbers after ± are expanded uncertainties.

What was measured:
[1] = molar enthalpy of vaporization or sublimation; conditions: 298.15 K; Crystal; Static calorimetry
[2] = Crystal, Calculated from knudsen effusion weight loss

molar enthalpy [1]	Compound	vapor or sublimation pressure ([2]; 377.16 K)	vapor or sublimation pressure ([2]; 379.12 K)	vapor or sublimation pressure ([2]; 381.1 K)	vapor or sublimation pressure ([2]; 383.16 K)	vapor or sublimation pressure ([2]; 385.1 K)	vapor or sublimation pressure ([2]; 387.09 K)	vapor or sublimation pressure ([2]; 389.15 K)	vapor or sublimation pressure ([2]; 391.1 K)	vapor or sublimation pressure ([2]; 393.1 K)	vapor or sublimation pressure ([2]; 395.15 K)	vapor or sublimation pressure ([2]; 397.13 K)	vapor or sublimation pressure ([2]; 399.12 K)
28.7 ± 0.669 kcal/mol	Cc1nnc(S)[nH]c1=O [6-aza-2-thiothymine]	–	–	–	–	–	–	–	–	–	–	–	–
26.1 ± 0.55 kcal/mol	Cc1n[nH]c(=O)[nH]c1=O [6-azathymine]	–	–	–	–	–	–	–	–	–	–	–	–
28.2 ± 0.502 kcal/mol	O=c1cn[nH]c(=O)[nH]1 [6-azauracil]	0.00012 ± 0.0001 kPa and 0.000109 ± 0.0001 kPa	0.000138 ± 0.0001 kPa and 0.000142 ± 0.0001 kPa and 0.000131 ± 0.0001 kPa	0.000167 ± 0.0001 kPa and 0.000164 ± 0.0001 kPa	0.000205 ± 0.0001 kPa and 0.000198 ± 0.0001 kPa and 0.000227 ± 0.0001 kPa	0.000252 ± 0.0001 kPa and 0.000229 ± 0.0001 kPa and 0.000269 ± 0.0001 kPa	0.000301 ± 0.0001 kPa and 0.000282 ± 0.0001 kPa	0.00037 ± 0.0001 kPa and 0.000355 ± 0.0001 kPa and 0.000413 ± 0.0001 kPa	0.000452 ± 0.0001 kPa and 0.000422 ± 0.0001 kPa and 0.000477 ± 0.0001 kPa	0.000538 ± 0.0001 kPa and 0.000515 ± 0.0001 kPa and 0.000575 ± 0.0001 kPa	0.00061 ± 0.0001 kPa and 0.000596 ± 0.0001 kPa and 0.000684 ± 0.0001 kPa	0.000756 ± 0.0001 kPa and 0.000711 ± 0.0001 kPa and 0.000812 ± 0.0001 kPa	0.000901 ± 0.00011 kPa and 0.000859 ± 0.00011 kPa and 0.000945 ± 0.00011 kPa
